The text below walks through data of US20250092069A1, “SILYL-LIPID CA[…] ENHANCED BIOLOGICAL ACTIVITY” (The Regents of the University of California, priority 2022, published 2025).

A word on the Log P: it is the decadic logarithm of the partition coefficient of the neutral form, usually between octanol and water. As a reminder, the IC50 is the concentration at which inhibition is half-maximal. Usually Emax stands for the size of the effect at its maximum, as opposed to the concentration needed. One may read the EC50 as the midpoint of the concentration-response curve.

For data set [1] the following is noted: cited from earlier work.
For data set [2], the target named is T1, CB1 (Homo sapiens, UniProt P21554). Briefly: CB1 β-arrestin recruitment antagonist assay (Eurofin's). To be noted: antagonist mode, 0.016 μM CP55940; for IC50: β-arrestin recruitment, read-out: RC50 (IC50), antagonist, CB1. It is filed as cell-based. From the text: (§1) For antagonist assays, data was normalized to the maximal and minimal response observed in the presence of EC80 ligand and vehicle.
Background: Recruitment of arrestin is a read-out of receptor activation apart from second messengers.

In data set [3] the target is T2, CB2 (Homo sapiens, UniProt P34972). In words: CB2 β-arrestin recruitment agonist assay (Eurofin's). It is filed as cell-based. The conditions noted are these: for Emax / EC50: β-arrestin recruitment, agonist mode; for EC50: read-out: RC50 (EC50), agonist, CB2.
Data set [4] addresses T2, CB2. In words: CB2 β-arrestin recruitment antagonist assay (Eurofin's). It is filed as cell-based. The conditions noted are these: antagonist mode, 0.0053 μM CP55940; for IC50: β-arrestin recruitment, read-out: RC50 (IC50), antagonist, CB2.
Text: as §1

For data set [5], the target named is T1, CB1. In words: CB1 β-arrestin recruitment agonist assay (Eurofin's). It is filed as cell-based. The conditions noted are these: agonist mode; for EC50: read-out: RC50 (EC50), agonist, CB1.
Another data set relates to TNF-α release. The conditions noted are these: at 30 min, LPS-induced model; cited from earlier work.
The mark [6] stands for this setting: normalized to response with EC80 ligand and vehicle.

T1 sequence (P21554 whole entry): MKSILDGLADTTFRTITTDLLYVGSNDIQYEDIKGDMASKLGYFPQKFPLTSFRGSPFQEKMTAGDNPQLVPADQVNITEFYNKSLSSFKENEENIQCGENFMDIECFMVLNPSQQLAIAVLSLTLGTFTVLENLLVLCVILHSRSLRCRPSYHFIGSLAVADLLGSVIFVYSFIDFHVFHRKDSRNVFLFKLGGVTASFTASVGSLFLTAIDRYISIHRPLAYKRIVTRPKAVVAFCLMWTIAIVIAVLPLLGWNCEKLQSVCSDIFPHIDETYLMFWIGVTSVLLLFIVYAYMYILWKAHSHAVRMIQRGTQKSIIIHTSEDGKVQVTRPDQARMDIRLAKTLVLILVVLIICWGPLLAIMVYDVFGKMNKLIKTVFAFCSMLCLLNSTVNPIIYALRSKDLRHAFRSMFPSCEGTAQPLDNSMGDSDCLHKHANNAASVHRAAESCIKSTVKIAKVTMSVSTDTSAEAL
T2 sequence (P34972 whole entry): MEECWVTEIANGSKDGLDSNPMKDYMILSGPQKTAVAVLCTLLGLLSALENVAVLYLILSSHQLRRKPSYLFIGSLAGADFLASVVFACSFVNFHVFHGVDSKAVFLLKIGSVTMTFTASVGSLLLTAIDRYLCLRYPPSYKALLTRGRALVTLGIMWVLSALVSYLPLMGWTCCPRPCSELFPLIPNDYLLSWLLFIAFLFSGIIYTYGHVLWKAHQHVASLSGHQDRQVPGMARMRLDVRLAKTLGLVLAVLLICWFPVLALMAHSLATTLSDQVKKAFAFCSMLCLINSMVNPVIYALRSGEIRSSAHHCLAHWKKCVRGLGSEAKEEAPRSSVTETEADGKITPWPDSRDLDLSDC

For the compound `C[Si]1(C)CC(C(=O)O)N(C(=O)OCC2c3ccccc3-c3ccccc32)C1` (stereo not drawn) [Fmoc-Sip], the log partition coefficient (Log P) in data set [1] is listed as 1.3.
For the compound `C[Si](C)(C)c1ccccc1` [trimethylsilyl-benzene], the “Log P” value in data set [1] is 4.7.
On to `CC(C)(C)c1ccccc1` [t-butylbenzene], for which, in data set [1], the “Log P” value is 4.0.
In the case of `Cc1c(C(=O)NN2CCOCC2)nn(-c2ccc(Cl)cc2Cl)c1-c1ccc(I)cc1` [AM281, reference compound], the “Emax, antagonist, CB1” value at CB1 [2] (setting [6]) was determined as 106.6%. Also, at CB1 [2], the IC50 came to 10.5 nM.
Regarding `CCCCCCC(C)(C)c1ccc([C@@H]2C[C@H](O)CC[C@H]2CCCO)c(O)c1` [CP55,940, reference compound], on CB2 [3], the Emax was found to be 101%.
In the case of `O=C(O)[C@@H]1CCCN1C(=O)OCC1c2ccccc2-c2ccccc21` [Fmoc-Pro], in data set [1], the “Log P” value is 0.094.
Regarding `C=C(C)[C@H]1CCC(C)=C[C@@H]1c1c(O)cc(CC[Si](C)(C)CCCC)cc1O` [AAC-02], the Emax at CB1 [2] (setting [6]) was 71.1%; on CB2 [3], 50.3%. In addition, the IC50 on CB1 [2] is 2230 nM; at CB2 [4], more than 10000 nM. Moreover, the values for the EC50 at CB1 [5] and on CB2 [3] were more than 10000 nM and 18 nM, respectively. The “selectivity for CB2 vs CB1” value at CB2 [3] (agonist EC50 CB1 vs CB2) is reported as 500 ×.
As for `C=C(C)[C@H]1CCC(C)=C[C@@H]1c1c(O)cc([Si](C)(C)CCCCCC)cc1O` [AAC-01], the Emax on CB1 [2] (setting [6]) worked out at 86.4%; at CB2 [4] (setting [6]) it was 69.7%; on CB1 [5] it was 64.8%; on CB2 [3], 70%. Also, the figures for the IC50 at CB1 [2] and on CB2 [4] were 2070 nM and 1870 nM, respectively. Besides, the EC50 on CB1 [5] turned out to be 33.3 nM; at CB2 [3], 4.14 nM.
For the compound SR 144528 [reference compound], the “Emax, antagonist, CB2” value on CB2 [4] (setting [6]) was determined as 101.6%.
Consider `Cc1ccc(-n2nc(C(C)(C)C)cc2NC(=O)Nc2ccc(OCCN3CCOCC3)c3ccccc23)cc1` [BIRB-796], for which, in the data set on TNF-α release, the TNF-α suppression is reported as 41%.
